Among the data in paper PMC10979456, “Trinucleotide mRNA Cap Analogue N6-Benzylated at the Site of Posttranscriptional ^m6Am Mark Facilitates mRNA Purification and Confers Superior Translational Properties In Vitro and In Vivo” (Journal of the American Chemical Society, 2024) are Kd values, retold here.

Assay in all cases: time-synchronized fluorescence quenching titration
Format in all cases: binding

One assay deals with T1, heIF4E3 (Homo sapiens, UniProt Q8N5X7).
T1 construct: gene EIF4E3; not described in main text (experimental details in supplement)
T1 sequence (Q8N5X7 whole entry): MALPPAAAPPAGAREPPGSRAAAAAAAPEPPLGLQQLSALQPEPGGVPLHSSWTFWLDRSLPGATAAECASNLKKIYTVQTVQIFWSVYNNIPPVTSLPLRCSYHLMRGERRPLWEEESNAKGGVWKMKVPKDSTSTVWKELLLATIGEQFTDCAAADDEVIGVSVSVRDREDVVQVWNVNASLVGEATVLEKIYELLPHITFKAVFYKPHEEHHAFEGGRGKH
The text has this:
time-synchronized fluorescence quenching titration on heIF4E3

The next assay concerns the target T2, h4EHP (eIF4E2) (Homo sapiens, UniProt O60573).
T2 construct: not described in main text (experimental details in supplement)
T2 sequence (O60573 1-245): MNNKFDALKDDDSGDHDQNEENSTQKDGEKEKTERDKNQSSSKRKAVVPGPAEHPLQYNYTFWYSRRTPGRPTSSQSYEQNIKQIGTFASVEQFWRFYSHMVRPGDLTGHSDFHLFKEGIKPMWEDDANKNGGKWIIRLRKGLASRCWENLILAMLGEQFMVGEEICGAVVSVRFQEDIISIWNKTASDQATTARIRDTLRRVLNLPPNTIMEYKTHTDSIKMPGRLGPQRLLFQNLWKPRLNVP
The source says: time-synchronized fluorescence quenching titration on h4EHP (eIF4E2)

The target of the next assay is T3, heIF4E1a (Homo sapiens, UniProt P06730).
T3 construct: gene EIF4E; not described in main text (experimental details in supplement)
T3 sequence (P06730 2-217): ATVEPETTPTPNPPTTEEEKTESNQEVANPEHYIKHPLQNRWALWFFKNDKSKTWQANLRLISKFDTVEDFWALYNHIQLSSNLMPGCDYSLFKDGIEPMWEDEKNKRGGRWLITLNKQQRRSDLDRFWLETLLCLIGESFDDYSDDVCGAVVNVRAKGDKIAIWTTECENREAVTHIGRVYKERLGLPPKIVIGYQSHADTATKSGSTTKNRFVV

Consider `CO[C@@H]1[C@H](OP(=O)(O)OC[C@H]2O[C@@H](n3cnc4c(=O)[nH]c(N)nc43)[C@H](O)[C@@H]2O)[C@@H](COP(=O)(O)OP(=O)(O)OP(=O)(O)OC[C@H]2O[C@@H](n3c[n+](C)c4c(=O)[nH]c(N)nc43)[C@H](O)[C@@H]2O)O[C@H]1n1cnc2c(NCc3ccccc3)ncnc21` [compound 1, m^7Gppp^Bn6AmpG], for which the values for the dissociation constant (Kd) at heIF4E3, on h4EHP (eIF4E2) and at heIF4E1a were 95.7 ± 1.7 nM, 687 ± 10 nM and 23.9 ± 0.5 nM, respectively.

Take `CNc1ncnc2c1ncn2[C@@H]1O[C@H](COP(=O)(O)OP(=O)(O)OP(=O)(O)OC[C@H]2O[C@@H](n3c[n+](C)c4c(=O)[nH]c(N)nc43)[C@H](O)[C@@H]2O)[C@@H](OP(=O)(O)OC[C@H]2O[C@@H](n3cnc4c(=O)[nH]c(N)nc43)[C@H](O)[C@@H]2O)[C@H]1OC` [m^7Gppp^m6AmpG]: the Kd (in general, a measure of binding affinity in units of concentration) at heIF4E3 was 140 ± 4 nM; on h4EHP (eIF4E2), 1340 ± 32 nM; on heIF4E1a it was 46.4 ± 0.6 nM.

As to `C[n+]1cn([C@@H]2O[C@H](COP(=O)(O)OP(=O)(O)OP(=O)(O)O)[C@@H](O)[C@H]2O)c2nc(N)[nH]c(=O)c21` [m^7GTP], the Kd at heIF4E3 turned out to be 129 ± 14 nM; on h4EHP (eIF4E2), 611 ± 19 nM.

Turning to `CO[C@@H]1[C@H](OP(=O)(O)OC[C@H]2O[C@@H](n3cnc4c(=O)[nH]c(N)nc43)[C@H](O)[C@@H]2O)[C@@H](COP(=O)(O)OP(=O)(O)OP(=O)(O)OC[C@H]2O[C@@H](n3c[n+](C)c4c(=O)[nH]c(N)nc43)[C@H](O)[C@@H]2O)O[C@H]1n1cnc2c(N)ncnc21` [m^7GpppAmpG], the equilibrium dissociation constant (Kd) worked out at 153 ± 3 nM at heIF4E3, 1020 ± 19 nM at h4EHP (eIF4E2) and 42.1 ± 0.7 nM on heIF4E1a.
